In general, Ki refers to the equilibrium dissociation constant of an inhibitor or competing ligand from its target.

The values that follow come from EP3625243B1, “TAILORED CYCLODEPSIPEPTIDES AS POTENT NON-COVALENT SERINE PROTEASE INHIBITORS” (Universität Duisburg-Essen, priority 2017, dated 2018).

One experiment addresses HTRA1 (Homo sapiens, UniProt Q92743). The experiment in a line: Chromogenic enzyme activity assay, HTRA1.
For a further experiment, the target named is HTRA3 (Homo sapiens, UniProt P83110). The experiment in a line: Chromogenic enzyme activity assay, HTRA3.
Experiment [1] deals with T1, human neutrophil elastase (Homo sapiens, UniProt P08246).
T1 construct: purchased Enzo Life Sciences BML-SE284
T1 sequence (P08246 30-267): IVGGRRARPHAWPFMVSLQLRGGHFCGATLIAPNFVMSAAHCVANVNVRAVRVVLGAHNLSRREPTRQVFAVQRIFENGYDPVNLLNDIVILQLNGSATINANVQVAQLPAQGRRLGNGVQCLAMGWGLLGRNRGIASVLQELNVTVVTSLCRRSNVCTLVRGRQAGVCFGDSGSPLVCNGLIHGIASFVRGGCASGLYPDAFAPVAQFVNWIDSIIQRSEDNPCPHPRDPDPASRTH
The experiment in a line: Chromogenic enzyme activity assay, elastase. The experiment is classed as biochemical.

Another experiment has as its target T2, HTRA2 (Homo sapiens, UniProt O43464).
T2 sequence (O43464 134-458): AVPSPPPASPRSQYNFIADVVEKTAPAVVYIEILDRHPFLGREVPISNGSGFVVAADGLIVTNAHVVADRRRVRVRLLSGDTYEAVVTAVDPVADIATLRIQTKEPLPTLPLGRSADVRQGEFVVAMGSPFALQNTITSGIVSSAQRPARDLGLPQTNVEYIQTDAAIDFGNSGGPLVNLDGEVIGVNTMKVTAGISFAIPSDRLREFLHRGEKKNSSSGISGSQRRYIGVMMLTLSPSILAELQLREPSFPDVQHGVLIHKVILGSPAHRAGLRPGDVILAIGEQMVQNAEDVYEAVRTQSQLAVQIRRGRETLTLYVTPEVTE
The experiment in a line: Chromogenic enzyme activity assay, HTRA2.

The target of experiment [2] is T3, human pancreas chymotrypsin (Homo sapiens, UniProt P17538).
T3 construct: purchased Sigma-Aldrich SRP6509-100
Nature of the experiment: Chromogenic enzyme activity assay, chymotrypsin. The experiment is classed as biochemical. As to conditions: Table 2, substrate AAF-pNA, read-out: Ki Chymo- trypsin [a].

A further experiment concerns the target T4, bovine pancreas trypsin (Bos taurus, UniProt P00760).
T4 construct: purchased Sigma-Aldrich T1426
T4 sequence (P00760 24-246): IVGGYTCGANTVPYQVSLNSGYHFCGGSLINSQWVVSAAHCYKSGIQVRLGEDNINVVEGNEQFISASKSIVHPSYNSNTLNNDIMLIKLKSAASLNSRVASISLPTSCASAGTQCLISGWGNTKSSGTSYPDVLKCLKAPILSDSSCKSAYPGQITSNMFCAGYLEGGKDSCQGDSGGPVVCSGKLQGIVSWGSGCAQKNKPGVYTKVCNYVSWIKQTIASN
The experiment in a line: Chromogenic enzyme activity assay, trypsin. The experiment is classed as biochemical. The note with it: Table 2, read-out: Ki Trypsin [c].

Setting [3] is: Table 3, read-out: Ki Elastase [b].
Setting [4] is: Table 2, substrate AAPV-pNA, read-out: Ki Elastase [b].

The structures appear in SMILES notation. Where two headings read alike, the source gives them in different places.

Chain of HTRA1 (Q92743 158-480): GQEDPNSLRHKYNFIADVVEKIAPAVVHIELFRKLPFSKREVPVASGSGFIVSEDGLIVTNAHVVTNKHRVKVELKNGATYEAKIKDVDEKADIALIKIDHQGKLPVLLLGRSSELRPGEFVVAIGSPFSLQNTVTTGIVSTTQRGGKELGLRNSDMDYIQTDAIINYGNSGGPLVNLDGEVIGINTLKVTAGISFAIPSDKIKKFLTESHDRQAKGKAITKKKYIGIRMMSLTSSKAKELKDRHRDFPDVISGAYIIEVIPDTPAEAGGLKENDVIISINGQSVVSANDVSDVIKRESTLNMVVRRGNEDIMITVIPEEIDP
Chain of HTRA3 (P83110 111-436): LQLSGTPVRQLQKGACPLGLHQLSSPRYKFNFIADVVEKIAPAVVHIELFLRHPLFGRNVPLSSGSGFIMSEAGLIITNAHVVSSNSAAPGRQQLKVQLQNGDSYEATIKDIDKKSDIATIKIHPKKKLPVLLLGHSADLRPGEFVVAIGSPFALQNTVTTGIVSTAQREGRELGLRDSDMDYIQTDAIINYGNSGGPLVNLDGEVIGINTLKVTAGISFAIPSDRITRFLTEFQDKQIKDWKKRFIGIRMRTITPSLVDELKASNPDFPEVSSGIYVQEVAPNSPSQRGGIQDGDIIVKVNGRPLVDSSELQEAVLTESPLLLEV
T3 sequence (P17538 19-263): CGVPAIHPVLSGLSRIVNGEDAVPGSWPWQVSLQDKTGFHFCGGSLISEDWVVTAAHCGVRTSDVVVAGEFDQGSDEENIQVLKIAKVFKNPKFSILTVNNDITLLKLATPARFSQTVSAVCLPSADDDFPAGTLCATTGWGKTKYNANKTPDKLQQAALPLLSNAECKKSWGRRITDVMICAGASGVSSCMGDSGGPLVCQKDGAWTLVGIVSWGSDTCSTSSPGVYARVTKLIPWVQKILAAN

For `C#CC[C@@H]1NC(=O)[C@@H](NC(=O)[C@H](C)NC(=O)[C@H](C)NC(=O)OCc2ccccc2)[C@@H](C)OC(=O)[C@H](C(C)C)NC(=O)[C@H](Cc2ccccc2)N(C)C(=O)[C@H](CC(C)C)N2C(=O)[C@H](CC[C@H]2O)NC1=O` [Ahp18], the Ki at HTRA1 was > 50 µM; on HTRA3 it was 17.9 µM; in experiment [1] (setting [3]) it was 0.2 µM.
With `CC(C)C[C@H]1C(=O)N(C)[C@@H](Cc2ccccc2)C(=O)N[C@@H](C(C)C)C(=O)O[C@H](C)[C@H](NC(=O)[C@H](C)NC(=O)[C@H](C)NC(=O)OCc2ccccc2)C(=O)N[C@@H](C)C(=O)N[C@H]2CC[C@@H](O)N1C2=O` [Ahp13], the Ki on HTRA1 was determined as 4.26 µM; on HTRA3, 0.98 µM; at HTRA2 it was 0.26 µM; in experiment [1] (setting [3]), 0.026 µM.
As to `C=CC[C@@H]1NC(=O)[C@@H](NC(=O)[C@H](C)NC(=O)[C@H](C)NC(=O)OCc2ccccc2)[C@@H](C)OC(=O)[C@H](C(C)C)NC(=O)[C@H](Cc2ccccc2)N(C)C(=O)[C@H](CC(C)C)N2C(=O)[C@H](CC[C@H]2O)NC1=O` [Ahp17], the Ki on HTRA1 was > 50 µM; on HTRA3, 0.84 µM; on HTRA2, 1.38 µM; in experiment [1] (setting [3]), 0.16 µM.
Consider `CC(C)C[C@H]1C(=O)N(C)[C@@H](Cc2ccccc2)C(=O)N[C@@H](C(C)C)C(=O)O[C@H](C)[C@H](NC(=O)[C@H](C)NC(=O)[C@H](C)NC(=O)OCc2ccccc2)C(=O)N[C@@H](C(C)C)C(=O)N[C@H]2CC[C@@H](O)N1C2=O` [Ahp1], for which the Ki at HTRA1 is 8.2 ± 2.7 µM; at HTRA3, 3 ± 0.5 µM; at HTRA2, 4.1 ± 0.4 µM; in experiment [1] (setting [4]), 0.019 ± 0.003 µM; in experiment [2], > 50 µM.
Consider `CC[C@@H]1NC(=O)[C@@H](NC(=O)[C@H](C)NC(=O)[C@H](C)NC(=O)OCc2ccccc2)[C@@H](C)OC(=O)[C@H](C(C)C)NC(=O)[C@H](Cc2ccccc2)N(C)C(=O)[C@H](CC(C)C)N2C(=O)[C@H](CC[C@H]2O)NC1=O` [Ahp14], for which the Ki stood at 2.97 µM at HTRA1, 1.46 µM on HTRA3, 0.7 µM on HTRA2 and 0.47 µM in experiment [1] (setting [3]).
Consider `CC(C)[C@@H]1NC(=O)[C@@H](NC(=O)[C@H](C)NC(=O)[C@H](C)NC(=O)OCc2ccccc2)[C@@H](C)OC(=O)[C@H](C(C)C)NC(=O)[C@H](Cc2ccccc2)N(C)C(=O)[C@H](Cc2ccccc2)N2C(=O)[C@H](CC[C@H]2O)NC1=O` [Ahp6], for which the inhibitory constant (Ki) in experiment [2] is > 50 µM.
Regarding `CC(C)C[C@H]1C(=O)N(C)[C@@H](C)C(=O)N[C@@H](C(C)C)C(=O)O[C@H](C)[C@H](NC(=O)[C@H](C)NC(=O)[C@H](C)NC(=O)OCc2ccccc2)C(=O)N[C@@H](C(C)C)C(=O)N[C@H]2CC[C@@H](O)N1C2=O` [Ahp7], the Ki is > 50 µM on HTRA1; > 50 µM on HTRA3; 6.9 ± 1.5 µM on HTRA2; 0.11 ± 0.02 µM in experiment [1] (setting [4]); > 50 µM in experiment [2].
Take `CCC(C)[C@@H]1NC(=O)[C@@H](NC(=O)[C@H](C)NC(=O)[C@H](C)NC(=O)OCc2ccccc2)[C@@H](C)OC(=O)[C@H](C(C)C)NC(=O)[C@H](Cc2ccccc2)N(C)C(=O)[C@H](CC(C)C)N2C(=O)[C@H](CC[C@H]2O)NC1=O` (some centres unmarked) [Ahp16]: the Ki is > 50 µM at HTRA1, > 50 µM at HTRA3, > 50 µM at HTRA2 and 0.5 µM in experiment [1] (setting [3]).
With `CC(C)C[C@H]1C(=O)N(C)[C@@H](Cc2ccccc2)C(=O)N[C@@H](C(C)C)C(=O)O[C@H](c2ccccc2)[C@H](NC(=O)[C@H](C)NC(=O)[C@H](C)NC(=O)OCc2ccccc2)C(=O)N[C@@H](C(C)C)C(=O)N[C@H]2CC[C@@H](O)N1C2=O` [Ahp3], the Ki in experiment [2] was > 50 µM.
On to `CC(C)C[C@H]1C(=O)N(C)[C@@H](Cc2ccccc2)C(=O)N[C@@H](C(C)C)C(=O)O[C@H](C)[C@H](NC(=O)[C@H](Cc2ccccc2)NC(=O)[C@H](C)NC(=O)OCc2ccccc2)C(=O)N[C@@H](C(C)C)C(=O)N[C@H]2CC[C@@H](O)N1C2=O` [Ahp4], for which the “HTRA2 inhibition potency relative to Ahp1” value on HTRA2 (compared with Ahp1) is on record as “more than ten-fold more potent”. Further, the Ki in experiment [2] was > 50 µM.
`CC(C)C[C@H]1C(=O)N(C)[C@@H](Cc2ccccc2)C(=O)N[C@@H](C(C)C)C(=O)O[C@H](C(C)C)[C@H](NC(=O)[C@H](C)NC(=O)[C@H](C)NC(=O)OCc2ccccc2)C(=O)N[C@@H](C(C)C)C(=O)N[C@H]2CC[C@@H](O)N1C2=O` [Ahp10]: the inhibition constant Ki at HTRA1 was 2.4 ± 0.6 µM; on HTRA3, 0.48 ± 0.07 µM; on HTRA2, 0.26 ± 0.03 µM; in experiment [1] (setting [4]), 0.018 ± 0.004 µM; in experiment [2], > 50 µM. For the same compound, the “Ki (HTRA2)” value on HTRA2 (Table 2) is given as “sub-µM”.
Consider `CC(C)C[C@H]1C(=O)N(C)[C@@H](Cc2ccccc2)C(=O)N[C@@H](C(C)C)C(=O)O[C@H](C)[C@H](NC(=O)[C@H](C)NC(=O)[C@H](C)NC(=O)OCc2ccccc2)C(=O)N[C@@H](Cc2ccccc2)C(=O)N[C@H]2CC[C@@H](O)N1C2=O` [Ahp2], for which the Ki (at HTRA1; on bovine pancreas trypsin; on HTRA3; on HTRA2; in experiment [1] (setting [4])) was > 50 µM in each case.
On to `CC(C)C[C@H]1C(=O)N(C)[C@@H](Cc2ccccc2)C(=O)N[C@@H](C(C)C)C(=O)O[C@H](C)[C@H](NC(=O)[C@H](C)NC(=O)[C@H](C)NC(=O)OCc2ccccc2)C(=O)N[C@@H](C2CCCCC2)C(=O)N[C@H]2CC[C@@H](O)N1C2=O` [Ahp21], for which the Ki on HTRA1 (read-out: Ki HTRA1 [a], Table 3, human HTRA proteases) is > 50 µM; at HTRA3 (read-out: Ki HTRA3 [a], Table 3, human HTRA proteases), > 50 µM; at HTRA2 (read-out: Ki HTRA2 [a], Table 3, human HTRA proteases) it was > 50 µM; in experiment [1] (setting [3]) it was > 50 µM.
Consider `CCC[C@@H]1NC(=O)[C@@H](NC(=O)[C@H](C)NC(=O)[C@H](C)NC(=O)OCc2ccccc2)[C@@H](C)OC(=O)[C@H](C(C)C)NC(=O)[C@H](Cc2ccccc2)N(C)C(=O)[C@H](CC(C)C)N2C(=O)[C@H](CC[C@H]2O)NC1=O` [Ahp15], for which the Ki at HTRA1 is 7 µM; on HTRA3 it was > 50 µM; on HTRA2 it was 0.69 µM; in experiment [1] (setting [3]), 0.13 µM.
In the case of `CC(C)C[C@H]1C(=O)N(C)[C@@H](Cc2ccccc2)C(=O)N[C@@H](Cc2ccccc2)C(=O)O[C@H](C)[C@H](NC(=O)[C@H](C)NC(=O)[C@H](C)NC(=O)OCc2ccccc2)C(=O)N[C@@H](C(C)C)C(=O)N[C@H]2CC[C@@H](O)N1C2=O` [Ahp8], the Ki in experiment [2] is > 50 µM.
